# Read-outs that look alike come from different tables or passages of the source.
# Tests used:
# [1] = biological target: T1, cellular TDO2 in HEK293-TDO2 cells (Homo sapiens, UniProt P48775); assay: 293-TDO2 cell-based assay (Kyn colorimetric); settings: 48 hours of incubation
# T1 construct: expressed in transfected cells; host or cells: HEK293 (ATCC), stably transfected
# Summary of the method: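 Kyn formed from L-Trp was read colorimetrically at 480 nm (TCA deproteinisation, then 2% 4-(dimethylamino)benzaldehyde). Compounds were added to 293-TDO2 cells 4 h post-seeding and left 48 h at 37° C. A four-parameter logistic model gave IC50 values.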
# IDO1 [2] = biological target: T2, IDO1 (Homo sapiens, UniProt P14902); assay: IDO1 enzymatic assay; assay type: biochemical; parameters: His tag (N); made in house; host or cells: E. coli; settings: read-out: Enzyme IC50 IDO1
# Summary of the method: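 Recombinant IDO1 carrying an N-terminal His tag and purified from E. coli was used at 50 nM with test compound, 1.3 mM D-tryptophan, 5 mM L-ascorbic acid, methylene blue and 0.4 mg/mL catalase in 50 mM potassium phosphate pH 7.5 containing 0.1% BSA. This mixture was incubated at 24 °C for 1.5 hours, after which N'-formylkynurenine formation was followed continuously at 321 nm for 1 hour and activity was taken as the slope. IC50 was derived from the enzyme activity remaining as compound concentration increased.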
# IDO1 [3] = biological target: T2, IDO1; assay: Hela cell-based IDO1 assay; settings: Hela cells
# Summary of the method: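 Kynurenine was measured at 480 nm in trichloroacetic acid-deproteinised supernatant after adding 2% 4-(dimethylamino)benzaldehyde. This supernatant came from HeLa cells seeded at 8000 per well in 96-well plates in phenol red-free DMEM with 10% FBS and, from 4 hours after seeding, exposed for 48 hours at 37 °C, 5% CO2 to DMSO-diluted compound dilutions, IFN-γ (final 100 ng/mL) and 0.4 mM L-Trp. The resulting data were fitted with a four-parameter logistic model in XLfit. Potency was taken from those fits.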
# TDO = biological target: T3, TDO (Homo sapiens, UniProt P48775); assay: TDO enzymatic assay; assay type: biochemical; settings: read-out: Enzyme IC50 TDO
# T3 construct: His tag (C); made in house; host or cells: E. coli
# Summary of the method: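 Recombinant C-terminally His-tagged TDO purified from E. coli (100 nM) was tested with 0.5 mM L-tryptophan (Km concentration). Otherwise the IDO1 enzymatic set-up was used: ascorbic acid, methylene blue, catalase, and potassium phosphate pH 7.5 with BSA, incubated 1.5 hours. N'-formylkynurenine absorbance was read continuously at 321 nm, and activity was taken as the slope. IC50 was calculated from remaining enzyme activity across increasing compound concentrations.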
# TDO2 in 293-TDO2 cells = biological target: T4, TDO2 in 293-TDO2 cells (Homo sapiens, UniProt P48775); assay: 293-TDO2 cell-based TDO2 Kyn (kynurenine) production assay
# T4 construct: expressed in transfected cells; host or cells: HEK293 (ATCC), stably transfected
# Summary of the method: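 HEK293 cells stably transfected to express tryptophan 2,3-dioxygenase were seeded at 10000 per well in 96-well plates in phenol red-free DMEM with 10% FBS. After 4 hours, DMSO-diluted compound dilutions were added, and cells were kept 48 hours at 37 °C, 5% CO2. Supernatant was deproteinised with trichloroacetic acid, and kynurenine was measured at 480 nm after adding 2% 4-(dimethylamino)benzaldehyde. Potency came from four-parameter logistic fits in XLfit.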
# [4] = biological target: T5, cellular IDO1 in HeLa cells (Homo sapiens, UniProt P14902); assay: HeLa cell-based IDO1 Kyn (kynurenine) production assay; settings: IDO1 induced by IFN-γ, 48 hours, read-out: cell-based EC50 value (IDO1 expressed Hela cells)
# T5 construct: endogenous in cells; host or cells: HeLa (ATCC), induced with human recombinant IFN-γ
# Protocol: HeLa Cell-Based IDO1 Kyn (Kynurenine) Production Assay:
# The inhibitory activity of IDO1 inhibitors is determined by using a colorimetric reaction to measure Kyn generated from L-Trp (L-Tryptophon) oxidation by cellular IDO1 in HeLa cells after induction of IDO1 expression by IFN-γ.
# Hela cells were obtained from the American Type Culture Collection and recovered in 10% FBS-containing phenol red-free DMEM medium. Cells were plated onto a 96-well plate (100 μl/well) at 8000 cells per well and kept at 37° C. in a humidified incubator supplied with 5% CO2 4 hours later, Human recombinant IFN-γ (8901SC, CST) was added to cells (final concentration 100 ng/mL) to stimulate endogenous IDO11. Compounds at different concentrations diluted in dimethylsulfoxide (DMSO) were added simultaneously with IFN-γ and 0.4 mM L-Trp. Cells were kept at 37° C. in a humidified incubator supplied with 5% CO2. After 48 hours of incubation, 100 μl supernatant from each well was removed to a new plate. The protein in the medium was precipitated with the addition of 8 μl 6N trichloroacetic acid. The plate was incubated at 60° C. for 30 minutes and then centrifugation at 2500 rpm for 10 minutes to remove sediments. […] The absorbance at 480 nm wavelength derived from Kyn was measured using a PHERAstar FS plate reader (BMG LABTECH). […]
# IDO1 [5] = biological target: T2, IDO1; assay: IDO1 enzymatic assay; assay type: biochemical; parameters: His tag (N); made in house; host or cells: E. coli; settings: recombinant IDO1, 1.3 mM D-tryptophan
# Protocol: Recombinant IDO1 was overexpressed and purified from E. coli cells with an N-terminal His tag. IDO1 enzymatic assay was carried out using a methodology similar to described in the literature (J. Biol. Chem. (1980), 255, 1339-1345.). The reaction mixture contains 50 nM IDO1, 1.3 mM D-tryptophan, 5 mM L-ascorbic acid, […] methylene Blue, 0.4 mg/mL catalase and compound (or DMSO) in a buffer containing 50 mM potassium phosphate pH 7.5 and 0.1% BSA. After incubation at 24′C for 1.5 hours, absorbance of the reaction mixture was continuously read at 321 nm to monitor the formation of N′-formylkynurenine by a FULOstar OMEGA plate reader (BMG LABTECH) for 1 hour. The enzymatic activity was determined by measuring the slope of the linear absorbance increase as a function of time. The IC50s are calculated based on remaining enzyme activity in the presence of increasing concentrations of compounds.
# T1 sequence (P48775 whole entry): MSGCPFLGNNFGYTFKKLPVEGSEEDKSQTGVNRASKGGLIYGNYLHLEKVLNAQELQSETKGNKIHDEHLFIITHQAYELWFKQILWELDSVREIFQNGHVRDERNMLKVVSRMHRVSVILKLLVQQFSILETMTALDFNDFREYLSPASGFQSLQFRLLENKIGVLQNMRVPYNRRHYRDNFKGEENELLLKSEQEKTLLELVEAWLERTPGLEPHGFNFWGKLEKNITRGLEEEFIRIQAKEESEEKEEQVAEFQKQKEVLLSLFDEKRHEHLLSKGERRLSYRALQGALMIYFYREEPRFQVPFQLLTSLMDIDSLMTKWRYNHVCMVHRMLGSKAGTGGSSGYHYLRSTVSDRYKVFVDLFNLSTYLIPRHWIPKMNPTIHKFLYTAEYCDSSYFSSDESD
# T3 sequence (P48775 whole entry): as above
# T2 sequence (P14902 whole entry): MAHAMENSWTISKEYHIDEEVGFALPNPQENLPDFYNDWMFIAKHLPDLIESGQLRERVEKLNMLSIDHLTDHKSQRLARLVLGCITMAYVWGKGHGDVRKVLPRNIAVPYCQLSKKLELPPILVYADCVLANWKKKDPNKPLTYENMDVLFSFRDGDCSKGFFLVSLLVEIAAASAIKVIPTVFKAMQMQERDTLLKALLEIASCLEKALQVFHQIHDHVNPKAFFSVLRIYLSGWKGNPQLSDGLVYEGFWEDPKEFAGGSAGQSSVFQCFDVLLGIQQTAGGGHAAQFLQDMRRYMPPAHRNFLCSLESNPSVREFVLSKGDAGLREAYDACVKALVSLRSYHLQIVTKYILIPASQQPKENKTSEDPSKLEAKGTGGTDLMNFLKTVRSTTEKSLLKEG
# T4 sequence (P48775 whole entry): as the sequence (P48775 whole entry) above
# T5 sequence (P14902 whole entry): as the sequence (P14902 whole entry) above
SMILES,EC50 [1],IC50 (IDO1 [2]),EC50 (IDO1 [3]),IC50 (TDO),EC50 (TDO2 in 293-TDO2 cells),EC50 [4],IC50 (IDO1 [5])
"COc1ccccc1[C@H]1CC[C@H]([C@H](O)c2c(C3CC3)ccn3cncc23)CC1 (single isomer, unassigned) [Example C113a]",> 10000 nM,28 nM,89 nM,5700 nM,,,
"OC(c1c(C2CC2)ccc2cncn12)[C@H]1CC[C@H](c2ccc(Cl)cc2)CC1 (single isomer, unassigned) [Example D103c]",> 10000 nM,22 nM,131 nM,8100 nM,> 10000 nM,130 nM,22 nM
"N#Cc1ccc([C@H]2CC[C@H](C(O)c3c(C4CC4)ccn4cncc34)CC2)cc1 (single isomer, unassigned) [Example C106a]",> 10000 nM,20 nM,141 nM,5200 nM,,,
"O[C@H](c1c(C2CC2)ccn2cncc12)[C@H]1CC[C@H](c2ccccc2C(F)(F)F)CC1 (single isomer, unassigned) [Example C116a]",> 10000 nM,77 nM,500 nM,6300 nM,,,
"O[C@H](c1c(C2CC2)ccc2cncn12)[C@H]1CC[C@H](c2cccc3ncccc32)CC1 (single isomer, unassigned) [Example D141a]",> 10000 nM,15 nM,12 nM,6100 nM,,,
"N#Cc1ccc([C@H]2CC[C@H]([C@H](O)c3c(C4CC4)ccc4cncn34)CC2)cc1 (single isomer, unassigned) [Example D110a]",> 10000 nM,16 nM,186 nM,6400 nM,,,
"O[C@H](c1c(C2CC2)ccc2cncn12)[C@H]1CC[C@H](c2ccc(F)c(F)c2F)CC1 (single isomer, unassigned) [Example D145a]",> 10000 nM,19 nM,277 nM,13000 nM,,,
"O[C@H](c1c(C2CC2)ccn2cncc12)[C@H]1CC[C@H](c2ccc(C(F)(F)F)cc2)CC1 (single isomer, unassigned) [Example C115a]",> 10000 nM,67 nM,2400 nM,11000 nM,,,
"Cc1cccc([C@H]2CC[C@H]([C@H](O)c3c(C4CC4)ccn4cncc34)CC2)c1 (single isomer, unassigned) [Example C111a]",> 10000 nM,28 nM,131 nM,8000 nM,,,
"O[C@H](c1c(C2CC2)ccc2cncn12)[C@H]1CC[C@H](c2cccc(Cl)c2)CC1 (single isomer, unassigned) [Example D116a]",> 10000 nM,15 nM,43 nM,9400 nM,,,
"COc1cccc([C@H]2CC[C@H]([C@H](O)c3c(C4CC4)ccn4cncc34)CC2)c1 (single isomer, unassigned) [Example C114a]",> 10000 nM,27 nM,180 nM,8300 nM,,,
"OC(c1c(C2CC2)ccc2cncn12)[C@H]1CC[C@H](c2ccc(OC3CCOCC3)cc2)CC1 (single isomer, unassigned) [Example D114c]",> 10000 nM,17 nM,67 nM,5600 nM,,,
"OC(c1c(C2CC2)ccc2cncn12)[C@H]1CC[C@@H](c2ccc(Cl)cc2)CC1 (single isomer, unassigned) [Example D103d]",,67 nM,,,> 10000 nM,> 10000 nM,67 nM
"O[C@H](c1c(C2CC2)ccn2cncc12)[C@H]1CC[C@H](c2ccc(OC3COC3)cc2)CC1 (single isomer, unassigned) [Example C117a]",> 10000 nM,15 nM,131 nM,3400 nM,,,
"O[C@H](c1c(C2CC2)ccc2cncn12)[C@H]1CC[C@H](c2ccc(F)cc2)CC1 (single isomer, unassigned) [Example D104a]",> 10000 nM,18 nM,23 nM,7500 nM,,,
"O[C@H](c1c(C2CC2)ccc2cncn12)[C@H]1CC[C@H](c2ccc3sccc3c2)CC1 (single isomer, unassigned) [Example D133a]",> 10000 nM,21 nM,220 nM,6700 nM,,,
"Cc1ccc([C@H]2CC[C@H]([C@H](O)c3c(C4CC4)ccn4cncc34)CC2)cc1 (single isomer, unassigned) [Example C110a]",> 10000 nM,35 nM,283 nM,21000 nM,,,
"O[C@H](c1c(C2CC2)ccc2cncn12)[C@H]1CC[C@H](c2ccc(Br)cc2)CC1 (single isomer, unassigned) [Example D118a]",> 10000 nM,25 nM,306 nM,7700 nM,,,
"COCCOc1ccc([C@H]2CC[C@H]([C@H](O)c3c(C4CC4)ccn4cncc34)CC2)cc1 (single isomer, unassigned) [Example C103a]",> 10000 nM,21 nM,167 nM,10000 nM,,,

# Reference: patent US10882856B2 (BeiGene, Ltd., priority 2017, dated 2021)
